Earlier results, collected in US10117939B2, “Pharmaceutical compositions comprising nebivolol or a nebivolol analogue” (MYLAN PHARMACEUTICALS ULC, priority 2007, dated 2018).

Conditions: as described in EP 0 744 946

Row | Compound | Dissolution (in words)
1 | Cl.O[C@H](CNC[C@@H](O)[C@H]1CCc2cc(F)ccc2O1)[C@@H]1CCc2cc(F)ccc2O1 (relative stereo) [nebivolol hydrochloride, ((±))-(R*(S*(S*—(S*))))-(alpha),(alpha)′-(iminobis(methylene)bis-(6-fluoro-3,4-dihydro-2H-1-benzopyran-2-methanol)] | poor dissolution
2 | Cl.O[C@H](CNC[C@@H](O)[C@H]1CCc2cc(F)ccc2O1)[C@@H]1CCc2cc(F)ccc2O1 [“micronized” nebivolol hydrochloride] | even worse than material in the normal crystalline form
